# Earlier results, collected in patent US20060182816A1, “Hypobromous acid system” (priority 2005, published 2006).
# Where two headings read alike, the source gives them in different places.
# Tests used:
# [1] = not given; remark: listed apart in the source
smiles,measurement,setting,value
OBr [Hypobromite ion],% bromine as OBr−,pH 6.0,0.0%
same,% bromine as OBr−,pH 6.5,0.6%
same,% bromine as OBr−,pH 7.0,2%
same,% bromine as OBr−,pH 7.5,6%
same,% bromine as OBr−,pH 8.0,17%
same,% bromine as OBr−,pH 8.5,43%
"OCl [HOCl, hypochlorous acid]",pKa,[1],about 7.53
OBr [Hypobromous acid],% bromine as HOBr,pH 6.0,100%
same,% bromine as HOBr,pH 6.5,99.4%
same,% bromine as HOBr,pH 7.0,98%
same,% bromine as HOBr,pH 7.5,94%
same,% bromine as HOBr,pH 8.0,83%
same,% bromine as HOBr,pH 8.5,57%
